Measured values published in patent US20130172387A1, “METHOD AND COMPOSITION FOR PROLONGING ANALGESIC EFFECT OF LOCAL ANESTHETIC” (priority 2011, published 2013).
“And” between values parts separate entries of the source, which are not always exact repeats. Identical values can stand only once.

Assays:
[1] = system: cutaneous trunci muscle reflex (CTMR); assay: Noxious pinprick test of the cutaneous trunci muscle reflex after subcutaneous injection; format: in vivo; conditions: rat; for time of complete recovery (CRT): s.c. 0.6 ml, mean ± SE, n=8
Protocol: Subcutaneous Injection The animal experimental protocol was approved by the Animal Committee of Mackay Memorial Hospital in Taipei, Taiwan. Male Sprague-Dawley rats were purchased from BioLasco (Taipei, Taiwan) and kept in an air-conditioned animal shelter at room temperature of 22° C. to 24° C. with controlled level of humidity (40% to 50%) in a 12-hour light-dark cycle. […] The rats were randomly assigned to treatments with a size of 8 rats per group. All rats were briefly anesthetized by inhalation of 2% isoflurane (Abbott Laboratories, North Chicago, Ill.). The back of each rat was carefully shaved with a razor and was left with no injuries. After the induction of inhalation anesthesia, the drugs were injected subcutaneously in the thoracolumbar region. The injections caused a circular elevation of the skin, creating a wheal of approximately 2 cm in diameter. This wheal was marked within a minute after the injection.
Neurobehavioral Examination Before the experiments were conducted, the animals were handled daily for up to 14 days to familiarize them with the behavioral investigator, the experimental environment, and the specific experimental protocols. A noxious pinprick test was used to measure the analgesic effect of the cutaneous trunci muscle reflex (CTMR), which is characterized by reflex movements of the skin over the back produced by twitches of the lateral thoracispinal muscles in response to local dorsal cutaneous stimulations. The von Frey filament (26.0 g) was affixed to an 18-gauge needle to standardize the stimulus intensity and to test the neurobehavioral examination. Six pinpricks were applied in the marked areas every 15 minutes after each drug administration until the rats were fully recovered from the block. Six pinpricks per test were sufficient enough to obtain reproducible results in rats among different study groups, while avoiding injury of the skin during repeated testing. […] The total absence of CTMR response was defined as a complete blockade with 100% of maximum possible effect (MPE). Three CTMR pinprick responses indicated a 50% of MPE, while 0% of observed MPE would show the presence of all six CTMR pinprick responses. The complete recovery time (CRT) is defined as the time period when the presence of all six pinprick responses returned with 0% of MPE. All CTMR responses observed in rats were under stable vital signs. To determine skin irritation (such as necrosis, swelling and inflammation), assessment in any macroscopic changes of the skin color and texture was further studied. Systemic side effects such as sedation, agitation, and respiratory distress were also evaluated. The observer was not informed about the drugs used.
Statistical Analysis The statistical difference between the treatment groups was tested by using Mann-Whitney Rank Sum Test to evaluate the analgesic degree of MPE. Microcal Origin version 7 (Microcal Software, Northampton, Mass.) and SigmaStat (Systat Software, Inc., Chicago, Ill.) were used to calculate the values of MPE, creating figures and analyzing statistics. A p value of less than 0.05 was defined significant. All data are presented as mean±SE.

skin = conditions: rat, in vivo, sc
Protocol: Neurobehavioral Examination Before the experiments were conducted, the animals were handled daily for up to 14 days to familiarize them with the behavioral investigator, the experimental environment, and the specific experimental protocols. A noxious pinprick test was used to measure the analgesic effect of the cutaneous trunci muscle reflex (CTMR), which is characterized by reflex movements of the skin over the back produced by twitches of the lateral thoracispinal muscles in response to local dorsal cutaneous stimulations. […] Three CTMR pinprick responses indicated a 50% of MPE, while 0% of observed MPE would show the presence of all six CTMR pinprick responses. The complete recovery time (CRT) is defined as the time period when the presence of all six pinprick responses returned with 0% of MPE. […] To determine skin irritation (such as necrosis, swelling and inflammation), assessment in any macroscopic changes of the skin color and texture was further studied. Systemic side effects such as sedation, agitation, and respiratory distress were also evaluated. The observer was not informed about the drugs used.

subcutaneous tissue = conditions: rat, in vivo, sc
Protocol: Histology To determine the toxicity of the present composition to the subcutaneous tissue, skin was excised from the injected area of anesthetized rats two days later. The skin cross-section samples were fixed in 4% paraformaldehyde overnight and stained with hematoxylin and eosin.
Tissue inflammation was evaluated by the level of lymphocytic infiltrations in the cinnamaldehyde-injected subcutaneous layer of rats' cross-sectioned skin at 48 h.

[2] = cinnamaldehyde 0.5% alone, or given 10 min before lidocaine 0.5% / bupivacaine 0.0625%
[3] = cinnamaldehyde 1% alone, or given 10 min before lidocaine 0.5% / bupivacaine 0.0625%
[4] = cinnamaldehyde 2% alone, or given 10 min before lidocaine 0.5% / bupivacaine 0.0625%

Compound	time of complete recovery (CRT) ([1]; cinnamaldehyde 0% (vehicle): lidocaine 0.5% or bupivacaine 0.0625% alone)	time of complete recovery (CRT) [1, 2]	time of complete recovery (CRT) [1, 3]	time of complete recovery (CRT) [1, 4]	duration of complete nociceptive block ([1]; s.c., bupivacaine 0.0625% alone)	complete nociceptive block to pinpricks ([1]; s.c., cinnamaldehyde 0.5%, 1%, 2% followed 10 min later by bupivacaine 0.0625%)	analgesic effect, dose dependence ([1]; s.c., cinnamaldehyde alone at 0.5%, 1% and 2%)	skin irritation (skin)	lymphocytic infiltration (tissue inflammation) in subcutaneous layer (subcutaneous tissue)	duration of complete nociceptive block to pinpricks ([1]; s.c., 2% cinnamaldehyde followed 10 min later by 0.5% lidocaine)	analgesic effect, dose dependence ([1]; s.c., cinnamaldehyde 0.5%, 1%, 2% followed by 0.5% lidocaine)
CCCCN1CCCCC1C(=O)Nc1c(C)cccc1C (centres unmarked) [Bupivacaine, 1-butyl-N-(2,6-dimethylphenyl)piperidine-2-carboxamide]	91.88 ± 4.43 min and 91.88 min	78.75 min	116.25 ± 4.70 min and 116.25 min	159.38 ± 6.30 min and 159.38 min	approximately 45 minutes	increased					
O=CC=Cc1ccccc1 [Cinnamaldehyde, cinnamaldehyde]		43.13 ± 5.97 min and 43.13 min	63.75 ± 4.70 min and 63.75 min	95.63 ± 3.95 min and 95.63 min			dose-dependent analgesic effect	neither obvious change of skin color nor injury was observed	More lymphocytic infiltrations		
CCN(CC)CC(=O)Nc1c(C)cccc1C [Lidocaine, 2-(diethylamino)-N-(2,6-dimethylphenyl)acetamide]		65.63 ± 2.74 min and 65.63 min	106.88 ± 3.40 min and 106.88 min	157.50 ± 5.67 min and 157.50 min						about 15 minutes	Dose dependent analgesic effect
